According to patent US6358885B1, “Substituted phenylheterocyclic herbicides” (Mississippi State University, priority 1992, dated 2002):

Columns and labels:
Test in all cases: Test G preemergence/postemergence greenhouse plant response rating 0 to 100
alfalfa = assay type: in vivo, Medicago ativa; details: 0 to 100 scale
Excerpt: (§1) Seeds, rhizomes, or plant parts of alfalfa (Medicago ativa), annual bluegrass (Poa annua), bermudagrass (Cynodon dactylon), broadleaf signalgrass (Brachiaria plantaginea), common purslane (Portulaca oleracea), common ragweed (Ambrosia elatior), […] (Paspalum dilatatum), goosegrass (Eleusine indica), guineagrass (Panicum maximum), […] exaltata), johnsongrass (Sorghum halepense), large crabgrass (Digitaria sanguinalis), peanut (Arachis hypoagaea), pitted morningglory (Ipomoea lacunosa), purple nutsedge (Cyperus rotundus), sandbur (Cenchrus echinatus), smooth crabgrass (Digitaria ischaemum) and yellow nutsedge (Cyperus esculentus) were planted into greenhouse pots containing greenhouse planting medium. Each pot contained only one plant species. The test compound was dissolved in a non-phytotoxic solvent and applied preemergence and/or postemergence to the plants. Preemergence applications were made within one day of planting the seeds or plant parts. Postemergence applications were applied when the plants were in the two to four leaf stage (three to twenty cm). Test chemicals were dissolved in a non-phytotoxic solvent and applied preemergence and postemergence to the plants. Untreated control plants and treated plants were placed in the greenhouse and visually evaluated for injury at 13 to 21 days after herbicide application. […] A dash (-) response indicates no test result.

annual bluegrass = assay type: in vivo, Poa annua; details: 0 to 100 scale
Excerpt: as §1

bermudagrass = assay type: in vivo, Cynodon dactylon; details: 0 to 100 scale
Excerpt: as §1

broadleaf signalgrass = assay type: in vivo, Brachiaria plantaginea; details: 0 to 100 scale
Excerpt: as §1

common purslane = assay type: in vivo, Portulaca oleracea; details: 0 to 100 scale
Excerpt: as §1

common ragweed = assay type: in vivo, Ambrosia elatior; details: 0 to 100 scale
Excerpt: as §1

dallisgrass = assay type: in vivo, Paspalum dilatatum; details: 0 to 100 scale
Excerpt: as §1

goosegrass = assay type: in vivo, Eleusine indica; details: 0 to 100 scale
Excerpt: as §1

guineagrass = assay type: in vivo, Panicum maximum; details: 0 to 100 scale
Excerpt: as §1

itchgrass = assay type: in vivo, Rottboellia exaltata; details: 0 to 100 scale
Excerpt: as §1

johnsongrass = assay type: in vivo, Sorghum halepense; details: 0 to 100 scale
Excerpt: as §1

large crabgrass = assay type: in vivo, Digitaria sanguinalis; details: 0 to 100 scale
Excerpt: as §1

peanut = assay type: in vivo, Arachis hypoagaea; details: 0 to 100 scale
Excerpt: as §1

pitted morningglory = assay type: in vivo, Ipomoea lacunosa; details: 0 to 100 scale
Excerpt: as §1

purple nutsedge = assay type: in vivo, Cyperus rotundus; details: Rate 125 g/ha, 0 to 100 scale
Excerpt: as §1

smooth crabgrass = assay type: in vivo, Digitaria ischaemum; details: 0 to 100 scale
Excerpt: as §1

yellow nutsedge = assay type: in vivo, Cyperus esculentus; details: Rate 125 g/ha, 0 to 100 scale
Excerpt: as §1

Fc1cc(Cl)c(OC2CCCC2)cc1-c1nn2c(c1Cl)CCCC2 [Compound 24]
70: Plant response rating, Cmn Purslane (common purslane; POSTEMERGENCE, Rate 250 g/ha)
90: Plant response rating, Goosegrass (goosegrass; PREEMERGENCE, Rate 125 g/ha) | Plant response rating, Large Crabgrass (large crabgrass; PREEMERGENCE, Rate 250 g/ha)
40: Plant response rating, Cmn Ragweed (common ragweed; PREEMERGENCE, Rate 125 g/ha) | Plant response rating, Goosegrass (goosegrass; PREEMERGENCE, Rate 250 g/ha)
100: Plant response rating, Brdlf Sgnlgrass (broadleaf signalgrass; PREEMERGENCE, Rate 125 g/ha) | Plant response rating, Itchgrass (itchgrass; PREEMERGENCE, Rate 125 g/ha)
0: Plant response rating, Alfalfa Var. (alfalfa; POSTEMERGENCE, Rate 125 g/ha) | Plant response rating, Alfalfa Var. (alfalfa; PREEMERGENCE, Rate 125 g/ha) | Plant response rating, Alfalfa Var. (alfalfa; PREEMERGENCE, Rate 250 g/ha) | Plant response rating, Ann Bluegrass (annual bluegrass; POSTEMERGENCE, Rate 125 g/ha) | Plant response rating, Ann Bluegrass (annual bluegrass; POSTEMERGENCE, Rate 250 g/ha) | Plant response rating, Ann Bluegrass (annual bluegrass; PREEMERGENCE, Rate 250 g/ha) | Plant response rating, Bermudagrass (bermudagrass; POSTEMERGENCE, Rate 125 g/ha) | Plant response rating, Bermudagrass (bermudagrass; POSTEMERGENCE, Rate 250 g/ha) | Plant response rating, Bermudagrass (bermudagrass; PREEMERGENCE, Rate 250 g/ha) | Plant response rating, Brdlf Sgnlgrass (broadleaf signalgrass; POSTEMERGENCE, Rate 125 g/ha) | Plant response rating, Brdlf Sgnlgrass (broadleaf signalgrass; POSTEMERGENCE, Rate 250 g/ha) | Plant response rating, Brdlf Sgnlgrass (broadleaf signalgrass; PREEMERGENCE, Rate 250 g/ha) | Plant response rating, Cmn Purslane (common purslane; PREEMERGENCE, Rate 125 g/ha) | Plant response rating, Cmn Purslane (common purslane; PREEMERGENCE, Rate 250 g/ha) | Plant response rating, Cmn Ragweed (common ragweed; POSTEMERGENCE, Rate 250 g/ha) | Plant response rating, Cmn Ragweed (common ragweed; PREEMERGENCE, Rate 250 g/ha) | Plant response rating, Dallisgrass (dallisgrass; POSTEMERGENCE, Rate 125 g/ha) | Plant response rating, Dallisgrass (dallisgrass; POSTEMERGENCE, Rate 250 g/ha) | Plant response rating, Goosegrass (goosegrass; POSTEMERGENCE, Rate 125 g/ha) | Plant response rating, Goosegrass (goosegrass; POSTEMERGENCE, Rate 250 g/ha) | Plant response rating, Guineagrass (guineagrass; POSTEMERGENCE, Rate 125 g/ha) | Plant response rating, Guineagrass (guineagrass; POSTEMERGENCE, Rate 250 g/ha) | Plant response rating, Guineagrass (guineagrass; PREEMERGENCE, Rate 125 g/ha) | Plant response rating, Guineagrass (guineagrass; PREEMERGENCE, Rate 250 g/ha) | Plant response rating, Itchgrass (itchgrass; POSTEMERGENCE, Rate 125 g/ha) | Plant response rating, Itchgrass (itchgrass; POSTEMERGENCE, Rate 250 g/ha) | Plant response rating, Johnsongrass (johnsongrass; POSTEMERGENCE, Rate 125 g/ha) | Plant response rating, Johnsongrass (johnsongrass; POSTEMERGENCE, Rate 250 g/ha) | Plant response rating, Johnsongrass (johnsongrass; PREEMERGENCE, Rate 125 g/ha) | Plant response rating, Johnsongrass (johnsongrass; PREEMERGENCE, Rate 250 g/ha) | Plant response rating, Large Crabgrass (large crabgrass; POSTEMERGENCE, Rate 125 g/ha) | Plant response rating, Large Crabgrass (large crabgrass; POSTEMERGENCE, Rate 250 g/ha) | Plant response rating, Peanuts (peanut; POSTEMERGENCE, Rate 125 g/ha) | Plant response rating, Peanuts (peanut; POSTEMERGENCE, Rate 250 g/ha) | Plant response rating, Peanuts (peanut; PREEMERGENCE, Rate 125 g/ha) | Plant response rating, Peanuts (peanut; PREEMERGENCE, Rate 250 g/ha) | Plant response rating, Pit Morninglory (pitted morningglory; POSTEMERGENCE, Rate 125 g/ha) | Plant response rating, Pit Morninglory (pitted morningglory; PREEMERGENCE, Rate 125 g/ha) | Plant response rating, Purple Nutsedge (purple nutsedge; POSTEMERGENCE) | Plant response rating, Purple Nutsedge (purple nutsedge; PREEMERGENCE) | Plant response rating, Smooth Crabgras (smooth crabgrass; POSTEMERGENCE, Rate 125 g/ha) | Plant response rating, Smooth Crabgras (smooth crabgrass; POSTEMERGENCE, Rate 250 g/ha) | Plant response rating, Smooth Crabgras (smooth crabgrass; PREEMERGENCE, Rate 125 g/ha) | Plant response rating, Smooth Crabgras (smooth crabgrass; PREEMERGENCE, Rate 250 g/ha) | Plant response rating, Yellow Nutsedge (yellow nutsedge; POSTEMERGENCE) | Plant response rating, Yellow Nutsedge (yellow nutsedge; PREEMERGENCE)
80: Plant response rating, Cmn Purslane (common purslane; POSTEMERGENCE, Rate 125 g/ha) | Plant response rating, Large Crabgrass (large crabgrass; PREEMERGENCE, Rate 125 g/ha)
50: Plant response rating, Cmn Ragweed (common ragweed; POSTEMERGENCE, Rate 125 g/ha) | Plant response rating, Pit Morninglory (pitted morningglory; PREEMERGENCE, Rate 250 g/ha)
20: Plant response rating, Alfalfa Var. (alfalfa; POSTEMERGENCE, Rate 250 g/ha) | Plant response rating, Dallisgrass (dallisgrass; PREEMERGENCE, Rate 125 g/ha) | Plant response rating, Itchgrass (itchgrass; PREEMERGENCE, Rate 250 g/ha)
30: Plant response rating, Ann Bluegrass (annual bluegrass; PREEMERGENCE, Rate 125 g/ha) | Plant response rating, Bermudagrass (bermudagrass; PREEMERGENCE, Rate 125 g/ha) | Plant response rating, Dallisgrass (dallisgrass; PREEMERGENCE, Rate 250 g/ha) | Plant response rating, Pit Morninglory (pitted morningglory; POSTEMERGENCE, Rate 250 g/ha)
